Assay results: publication PMC3914206

Columns and labels:
panel of 442 kinases [1] = biological target: T1, panel of 442 kinases (Homo sapiens, UniProt P29376); type: binding; settings: Compound Concentration 10 µM
T1 construct: purchased KINOMEscan
Excerpt: (§1) We assessed the selectivity of members of this scaffold using the KINOMEscan methodology across a near comprehensive panel of 442 kinases [[18,27]].

panel of 442 kinases [2] = biological target: T2, panel of 442 kinases (Homo sapiens, UniProt Q8WXR4); type: binding; settings: Compound Concentration 10 µM
T2 construct: purchased KINOMEscan
T2 sequence (Q8WXR4 1-1341): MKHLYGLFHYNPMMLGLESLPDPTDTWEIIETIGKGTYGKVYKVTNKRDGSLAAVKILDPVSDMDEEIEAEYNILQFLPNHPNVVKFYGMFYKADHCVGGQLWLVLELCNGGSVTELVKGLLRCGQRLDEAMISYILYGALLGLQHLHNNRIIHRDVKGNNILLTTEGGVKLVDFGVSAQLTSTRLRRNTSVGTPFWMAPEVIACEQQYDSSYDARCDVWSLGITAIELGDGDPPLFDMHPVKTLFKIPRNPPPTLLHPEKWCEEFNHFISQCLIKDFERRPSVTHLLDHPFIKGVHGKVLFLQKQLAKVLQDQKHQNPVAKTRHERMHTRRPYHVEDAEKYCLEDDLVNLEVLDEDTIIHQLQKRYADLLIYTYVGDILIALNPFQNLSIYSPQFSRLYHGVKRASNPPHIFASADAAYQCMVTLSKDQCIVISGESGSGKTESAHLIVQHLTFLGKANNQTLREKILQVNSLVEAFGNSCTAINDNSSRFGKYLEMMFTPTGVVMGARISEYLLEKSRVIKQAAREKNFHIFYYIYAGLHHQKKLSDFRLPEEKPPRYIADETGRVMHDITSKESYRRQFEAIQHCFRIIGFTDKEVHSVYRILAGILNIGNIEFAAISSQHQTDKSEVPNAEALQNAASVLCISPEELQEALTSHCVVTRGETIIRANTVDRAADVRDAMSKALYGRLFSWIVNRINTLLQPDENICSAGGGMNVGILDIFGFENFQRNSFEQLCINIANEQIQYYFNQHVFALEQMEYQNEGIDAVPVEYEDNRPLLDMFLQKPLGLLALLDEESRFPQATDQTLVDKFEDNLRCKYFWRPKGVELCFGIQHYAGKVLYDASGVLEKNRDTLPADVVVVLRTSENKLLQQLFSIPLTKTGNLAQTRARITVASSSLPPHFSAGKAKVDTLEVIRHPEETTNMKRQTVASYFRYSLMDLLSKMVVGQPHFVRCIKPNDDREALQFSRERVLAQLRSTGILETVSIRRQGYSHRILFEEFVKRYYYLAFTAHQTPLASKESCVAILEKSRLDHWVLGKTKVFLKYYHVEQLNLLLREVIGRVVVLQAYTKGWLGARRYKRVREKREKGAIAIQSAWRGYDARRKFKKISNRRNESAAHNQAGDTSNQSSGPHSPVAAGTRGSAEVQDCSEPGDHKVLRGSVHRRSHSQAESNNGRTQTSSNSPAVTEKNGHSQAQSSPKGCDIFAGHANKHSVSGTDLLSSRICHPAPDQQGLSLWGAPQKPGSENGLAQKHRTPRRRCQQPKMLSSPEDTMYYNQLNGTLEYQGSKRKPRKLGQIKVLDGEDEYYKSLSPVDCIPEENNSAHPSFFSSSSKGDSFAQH
Excerpt: as §1

T1 sequence (P29376 17-864): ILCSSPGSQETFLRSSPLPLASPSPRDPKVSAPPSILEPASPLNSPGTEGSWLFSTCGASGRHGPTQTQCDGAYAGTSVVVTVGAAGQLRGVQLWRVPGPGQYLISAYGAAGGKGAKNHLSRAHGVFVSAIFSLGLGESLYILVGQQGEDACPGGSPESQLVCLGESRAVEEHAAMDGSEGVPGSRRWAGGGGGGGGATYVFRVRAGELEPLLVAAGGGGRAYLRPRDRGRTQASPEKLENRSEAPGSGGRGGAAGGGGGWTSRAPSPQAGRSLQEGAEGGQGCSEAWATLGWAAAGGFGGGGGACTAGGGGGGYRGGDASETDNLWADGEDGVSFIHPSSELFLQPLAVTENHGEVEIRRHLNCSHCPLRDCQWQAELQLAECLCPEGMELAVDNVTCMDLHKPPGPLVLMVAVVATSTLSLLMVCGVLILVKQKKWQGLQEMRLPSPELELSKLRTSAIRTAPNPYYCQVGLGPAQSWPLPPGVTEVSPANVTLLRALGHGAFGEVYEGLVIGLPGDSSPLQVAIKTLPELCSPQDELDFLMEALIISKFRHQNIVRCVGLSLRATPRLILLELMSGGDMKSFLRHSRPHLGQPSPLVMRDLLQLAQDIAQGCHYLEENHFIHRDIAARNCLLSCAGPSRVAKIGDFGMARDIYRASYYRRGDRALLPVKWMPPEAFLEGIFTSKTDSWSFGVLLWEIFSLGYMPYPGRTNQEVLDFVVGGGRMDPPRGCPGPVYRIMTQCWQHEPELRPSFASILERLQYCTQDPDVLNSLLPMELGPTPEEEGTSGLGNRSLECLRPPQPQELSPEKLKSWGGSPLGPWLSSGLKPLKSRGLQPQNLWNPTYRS

SMILES | KINOMEscan: LTK (panel of 442 kinases [1]) | KINOMEscan: MYO3B (panel of 442 kinases [2])
COc1cc(C(=O)N2CCC(N3CCN(C)CC3)CC2)ccc1Nc1ncc2c(n1)N(C)c1ccccc1C(=O)N2C [15 (LRRK2-IN-1)] | 32 | 83
COc1cc(C(=O)N2CCC(N3CCN(C)CC3)CC2)ccc1Nc1ncc2c(n1)N1CCc3cccc(c31)C(=O)N2C [Compound 24] | – | 76
COc1cc(C(=O)N2CCC(N3CCN(C)CC3)CC2)ccc1Nc1ncc2c(n1)N(C1CCCC1)c1ccccc1C(=O)N2C [Compound 25, 11-cyclopentyl-2-((2-methoxy-4-(4-(4-methylpiperazin-1-yl)piperidine-1-carbonyl)phenyl)amino)-5-methyl-5H-benzo[e]pyrimido[5,4-b][1,4]diazepin-6(11H)-one] | 11 | 100
CCOc1cc(C(=O)N2CCC(N3CCN(C)CC3)CC2)ccc1Nc1ncc2c(n1)N(C1CCCC1)c1ccccc1C(=O)N2C [Compound 26] | 48 | 100
